A short description of the data set: Reversal of a formed copper phosphite precipitate by an added agent (Example 1). Type of data set: physicochemical. To be noted: precipitate from 0.6 g/l Cu(OH)2, 14.4 g/l KH2PO3, 1 g/l K2CO3, pH 5.5; chelators 10 mM, sodium lignosulfonate 6 g/l (48 hours of stirring). The text has this: Copper phosphite precipitate was formed by combining 0.6 g/l of Cu(OH)2 and 14.4 g/l of KH2PO3 in the presence of 1 g/l of K2CO3 to ensure pH 5.5 in demineralised water.

For `O=C([O-])CN(CCN(CC(=O)[O-])CC(=O)O)CC(=O)O.[Na+].[Na+]` [disodium EDTA], the “Effect of afterwards addition on copper phosphite precipitate” value is “immediately disappeared”.

The values above are taken from patent US20110052720A1 (priority 2007, published 2011).
